Experiments:
[1] = tested on: IL-17A in Human peripheral mononuclear cells; assay: Human PBMC IL-17A assay; format: cell-based; conditions: 72 h, EC50, antiCD3/antiCD28-coated beads, 3 days, alpha-LISA
Outline: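 Cryopreserved human PBMC (130,000/well) stimulated with anti-CD3/anti-CD28-coated beads (1 cell per bead) in RPMI-1640 with 10% bovine calf serum, compounds at 0.1% DMSO, for 3 days. Supernatant IL-17A measured by AlphaLISA, viability by PrestoBlue; EC50 from 4-parameter non-linear regression.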

[2] = tested on: IL-17A levels in human peripheral blood; assay: tissue or blood; format: cell-based; conditions: 72 h, read-out: Human Whole blood IL-17A (nM)
[3] = target: T1, human RORgt nuclear receptor (RORgT ligand binding domain protein) (Homo sapiens, UniProt P51449); assay: ROR-gamma binding assay (Scintillation Proximity Assay, displacement of [3H]-25-hydroxycholesterol); conditions: EC50, SPA, 15 nM [3H]-25-Hydroxycholesterol, RORgT LBD 12 nM
T1 construct: purchased Proteros Biostructures GmbH
T1 sequence (P51449 with tags, fused parts or gaps): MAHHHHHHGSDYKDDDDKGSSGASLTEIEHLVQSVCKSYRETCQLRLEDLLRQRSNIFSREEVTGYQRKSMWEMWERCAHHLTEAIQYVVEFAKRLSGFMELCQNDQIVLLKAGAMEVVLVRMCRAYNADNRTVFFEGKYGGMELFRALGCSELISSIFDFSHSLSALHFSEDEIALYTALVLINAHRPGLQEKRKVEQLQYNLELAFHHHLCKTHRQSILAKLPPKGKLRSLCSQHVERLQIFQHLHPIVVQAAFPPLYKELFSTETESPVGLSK
Outline: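 SPA competition of compound against 15 nM [3H]-25-hydroxycholesterol for His/FLAG-tagged human RORγt LBD (12 nM) on His-tag PVT beads, in 50 mM HEPES pH 7.4, 150 mM NaCl, 5 mM MgCl2, 0.1% BSA, 0.5% DMSO. 30 min preincubation, then ≥4 h at room temperature in darkness; EC50 by four-parameter fit.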

Compound	EC50 [1] [nM]	EC50 [2] [nM]	EC50 [3] [nM]
Cc1c(CN2CCN(C(=O)OC(C)C)[C@@H](C)C2)cc(Cl)cc1Nc1nnc([C@@H]2CC(=O)N2)o1 [Example 53, isopropyl (2S)-4-[[5-chloro-2-methyl-3-[[5-[(2S)-4-oxoazetidin-2-yl]-1,3,4-oxadiazol-2-yl]amino]phenyl]methyl]-2-methyl-piperazine-1-carboxylate]	93.9	247	68.2
Cc1c(CN2CCN(C(=O)c3ccccc3)[C@@H](C)C2)cc(Cl)cc1Nc1nnc(C2CC2)o1 [Example 5, [(2S)-4-[[5-chloro-3-[(5-cyclopropyl-1,3,4-oxadiazol-2-yl)amino]-2-methyl-phenyl]methyl]-2-methyl-piperazin-1-yl]-phenyl-methanone]	69.7	385	22.6
Cc1cc(CN2CCN(C(=O)C3CCC3)[C@@H](C)C2)c(C)c(Nc2nnc(CC#N)o2)c1 [Example 15, 2-[5-[3-[[(3S)-4-(cyclobutanecarbonyl)-3-methyl-piperazin-1-yl]methyl]-2,5-dimethyl-anilino]-1,3,4-oxadiazol-2-yl]acetonitrile]	101	421	63.8
Cc1cc(CN2CCN(C(=O)C3CCCC3)[C@@H](C)C2)c(C)c(Nc2nnc([C@@H](C)O)o2)c1 [Example 24, cyclopentyl-[(2S)-4-[[3-[[5-[(1R)-1-hydroxyethyl]-1,3,4-oxadiazol-2-yl]amino]-2,5-dimethyl-phenyl]methyl]-2-methyl-piperazin-1-yl]methanone]	35.9	112	38.6
Cc1cc(CN2CCN(C(=O)C3CCC3)[C@@H](C)C2)c(C)c(Nc2nnc(C)o2)c1 [Example 14, cyclobutyl-[(2S)-4-[[2,5-dimethyl-3-[(5-methyl-1,3,4-oxadiazol-2-yl)amino]phenyl]methyl]-2-methyl-piperazin-1-yl]methanone]	185	372	61.1
Cc1cc(CN2CCN(C(=O)OC(C)(C)C)[C@@H](C)C2)c(C)c(Nc2nnc(-c3ccno3)o2)c1 [Example 32, tert-butyl (2S)-4-[[3-[(5-isoxazol-5-yl-1,3,4-oxadiazol-2-yl)amino]-2,5-dimethyl-phenyl]methyl]-2-methyl-piperazine-1-carboxylate]	101	392	26.4
Cc1cc(CN2CCN(C(=O)OC(C)(C)C)[C@@H](C)C2)c(C)c(Nc2nnc(-c3cnsn3)o2)c1 [Example 33, tert-butyl (2S)-4-[[2,5-dimethyl-3-[[5-(1,2,5-thiadiazol-3-yl)-1,3,4-oxadiazol-2-yl]amino]phenyl]methyl]-2-methyl-piperazine-1-carboxylate]	45.2	126	23.3
Cc1c(CN2CCN(C(=O)c3ccccc3)[C@@H](C)C2)cc(Cl)cc1Nc1nnc(C2CCCO2)o1 (stereo partly drawn) [Example 4, [(2S)-4-[[5-chloro-2-methyl-3-[(5-tetrahydrofuran-2-yl-1,3,4-oxadiazol-2-yl)amino]phenyl]methyl]-2-methyl-piperazin-1-yl]-phenyl-methanone]	34.7	428	29.9
Cc1cc(CN2CCN(C(=O)OC(C)C)[C@@H](C)C2)c(C)c(Nc2nnc(C)o2)c1 [Example 35, isopropyl (2S)-4-[[2,5-dimethyl-3-[(5-methyl-1,3,4-oxadiazol-2-yl)amino]phenyl]methyl]-2-methyl-piperazine-1-carboxylate]	106	499	33.9
Cc1cc(CN2CCN(C(=O)OC(C)C)[C@@H](C)C2)c(C)c(Nc2nnc([C@H]3C[C@@H](O)C3)o2)c1 [Example 37, isopropyl (2S)-4-[[3-[[5-(3-hydroxycyclobutyl)-1,3,4-oxadiazol-2-yl]amino]-2,5-dimethyl-phenyl]methyl]-2-methyl-piperazine-1-carboxylate]	43.7	426	40.8
